Key:
[1] = tested on: weiblichen Ratten; experiment: Blood-sugar-lowering effect in fasted female rats (glucose by hexokinase method); assay type: in vivo; parameters: key: n.s.: statistisch nicht signifikant; settings: rats fasted 24 h
From the text: Die blutzuckersenkende Wirkung der zu untersuchenden Substanzen wurde an weiblichen Ratten eigener Zucht mit dem Gewicht von 180-220 g geprüft, welche 24 Stunden vor Versuchsbeginn nüchtern gesetzt wurden. Die zu untersuchenden Substanzen wurden unmittelbar vor Versuchsbeginn in 1,5%- iger Methylcellulose suspendiert und per Schlundsonde appliziert.
Die Blutentnahme erfolgte unmittelbar vor Substanzapplikation, sowie 1, 2, 3 und 4 Stunden danach jeweils aus dem retroorbitalen Venenplexus. Hiervon wurden jeweils 50 Fl mit 0,5 ml 0,33 N Perchlorsäure enteiweißt und zentrifugiert. Im überstand wurde Glukose nach der Hexokinase-Methode mit Hilfe eines Analysenphotometers bestimmt. Die statistische Auswertung erfolgte nach dem t-Test nach Student mit p = 0,05 als Signifikanzgrenze.
Die nachfolgende Tabelle enthält die gefundenen Werte in Prozent gegenüber Kontrolle: […]

[2] = tested on: weiblichen und männlichen Mäusen; experiment: Acute toxicity in mice after a single oral dose; assay type: in vivo; settings: observation at least 7 days; for Tieren gestorben: single oral dose of 1 000 mg/kg; for orientierende Toxizität: single oral dose
From the text: Bei weiblichen und männlichen Mäusen eigener Zucht mit dem Gewicht von 20-26 g wurde die toxische Wirkung der Substanzen nach oraler Gabe (Suspension in 1%iger Methylcellulose) einer einmaligen Dosis bei einer Nachbeobachtungszeit von mindestens 7 Tagen geprüft. Die nachfolgende Tabelle enthält die gefundenen Werte: […]

[3] = 5 mg/kg by gavage, 1 hour after administration
[4] = 5 mg/kg by gavage, 2 hours after administration
[5] = 5 mg/kg by gavage, 3 hours after administration
[6] = 5 mg/kg by gavage, 4 hours after administration

In the case of `CCNc1ccc(Cl)cc1C(=O)NCCc1ccc(C(=O)O)cc1` [Substanz E, 4-[2-(2-Äthylamino-5-chlor-benzoylamino)-äthyl]benzoesäure, reference compound], the “Blutzuckersenkende Wirkung, Werte in Prozent gegenüber Kontrolle” value (“Blutzuckersenkende Wirkung, Werte” for short) ([1]; 25 mg/kg by gavage, 1 hour after administration) is reported as “n.s”, the “Blutzuckersenkende Wirkung, Werte” value ([1]; 25 mg/kg by gavage, 2 hours after administration) is reported as “n.s” and the “Blutzuckersenkende Wirkung, Werte” value ([1]; 25 mg/kg by gavage, 3 hours after administration) is reported as “n.s”. The “Blutzuckersenkende Wirkung, Werte” value ([1]; 25 mg/kg by gavage, 4 hours after administration) was “n.s”.

For `O=C(O)c1ccc(CCNC(=O)c2cc(F)ccc2N2CCCCCCCC2)cc1` [Substanz B, 4-[2-[5-Fluor-2-(octahydro-1H-azonino)-benzoylamino]äthyl]-benzoesäure], the “Blutzuckersenkende Wirkung, Werte” value [1, 3] was -31 Prozent, the “Blutzuckersenkende Wirkung, Werte” value [1, 4] was -36 Prozent and the “Blutzuckersenkende Wirkung, Werte” value [1, 5] was -34 Prozent. For the same molecule, the “Blutzuckersenkende Wirkung, Werte” value [1, 6] was -34 Prozent.

For `O=C(O)c1ccc(CCNC(=O)c2cc(Cl)ccc2N2CCC3CCCC2C3)cc1` (stereo not drawn) [Substanz A, 4-[2-[2-(2-Azabicyclo[3.3.1]nonan-2-yl)-5-chlor-benzoyl-amino]-äthyl]benzoesäure], the “Blutzuckersenkende Wirkung, Werte” value [1, 3] was -42 Prozent, the “Blutzuckersenkende Wirkung, Werte” value [1, 4] was -43 Prozent and the “Blutzuckersenkende Wirkung, Werte” value [1, 5] was -36 Prozent. The “Blutzuckersenkende Wirkung, Werte” value [1, 6] was -32 Prozent.

With `C[C@@H]1C[C@H](C)CN(c2ncc(Cl)cc2C(=O)NCCc2ccc(C(=O)O)cc2)C1` [Substanz C] the “Blutzuckersenkende Wirkung, Werte” value [1, 3] was -37 Prozent, the “Blutzuckersenkende Wirkung, Werte” value [1, 4] was -39 Prozent and the “Blutzuckersenkende Wirkung, Werte” value [1, 5] was -40 Prozent. The “Blutzuckersenkende Wirkung, Werte” value [1, 6] was -38 Prozent, the Tieren gestorben [2] was 0 von 10 and the “orientierende Toxizität” value [2] was > 1 000 mg/kg.

`Cc1ccc(N2CCCCCCCC2)c(C(=O)NCCc2ccc(C(=O)O)cc2)c1` [Substanz D, 4-[2-[5-Methyl-2-(octahydro-1H-azonino)-benzoylamino]-äthyl]-benzoesäure] was tested, and the “Blutzuckersenkende Wirkung, Werte” value [1, 3] was -30 Prozent, the “Blutzuckersenkende Wirkung, Werte” value [1, 4] was -34 Prozent and the “Blutzuckersenkende Wirkung, Werte” value [1, 5] was -35 Prozent. For the same molecule, the “Blutzuckersenkende Wirkung, Werte” value [1, 6] was -26 Prozent.

For `CCC(CC)C1CCN(c2ccc(Cl)cc2C(=O)O)CC1` [Substanz F, 5-Chlor-2-[4-(3-pentyl)-piperidino]benzoesäure], the Tieren gestorben [2] was 0 von 10 and the “orientierende Toxizität” value [2] was > 1 000 mg/kg.
